Source: patent US20240165114A1, “TREATMENT OF DIABETIC NEPHROPATHY WITH AN sGC STIMULATOR” (Cyclerion Therapeutics, Inc., priority 2019, published 2024)

Columns and labels:
[1] = system: adult patients with type 2 diabetes mellitus with albuminuria; assay: Phase 2 study: serum LDL cholesterol; format: in vivo, human; settings: for Serum LDL Cholesterol: Between PRL and PBO Group LS Mean Change from Baseline at week 12 / Serum LDL Cholesterol: Within Group LS Mean Change from Baseline at Week 12: ITT; for LDL Cholesterol: Placebo Adjusted LS Mean Change from Baseline at Week 12 / LDL Cholesterol: Within Group LS Mean Change from Baseline at Week 12: mITT Population
From the text: Other secondary objectives of this clinical study included the evaluation of the pharmacokinetic (PK) concentrations of oral IW-1973 and the exploration of the effect of oral IW-1973 on hemodynamics and metabolic effects when administered daily for approximately 12 weeks to adult patients with type 2 diabetes mellitus with albuminuria (i.e., DN patients) who were on a stable regimen of renin-angiotensin system inhibitors (RAAS inhibitors, i.e., ACEi's and ARBs).
Clinical laboratory assessments obtained during the performance of this clinical trial included: complete blood count, serum chemistry panel, urinalysis, coagulation panel, estimated glomerular filtration rate (eGFR; determined by the Chronic Kidney Disease Epidemiology Collaboration [CKD-EPI] creatinine equation), hemoglobin A1c (HbA1C), Homeostatic Model Assessment to estimate insulin resistance (HOMA-IR), platelet function assessment (using VerifyNow®, at a subset of sites), urine pregnancy, and screens for hepatitis, human immunodeficiency virus, and drugs of abuse.
This multicenter, randomized, double-blind, placebo-controlled, parallel-group study evaluated 2 dose levels of IW-1973 compared with placebo. The study population consisted of adult patients with type 2 diabetes mellitus, albuminuria, and impaired renal function. Patients had to have been taking antihyperglycemic medications for at least 12 weeks with their regimen being stable (ie, drug and dose) for at least 28 days before the Randomization Visit. Additionally, patients had to have been on a stable regimen of angiotensin-converting enzyme inhibitor (ACEi) or an angiotensin receptor blocker (ARB), for at least 28 days before the Randomization Visit. For more details, see Inclusion Criteria below. A total of 156 patients (approximately 50 patients per arm) were stratified by baseline estimated glomerular filtration rate (eGFR) into three groups: eGFR 30 to 45, >45 to 60, and >60 to 75 mL/min/1.73 m^2) and randomized approximately 1:1:1 to total daily 20 mg IW-1973, 40 mg IW-1973, or placebo.

[2] = Plasma IW-1973 concentrations / population PK in the Phase 2 study; format: in vivo, human
Experimental: Plasma IW-1973 concentrations were measured for pharmacokinetic determinations.
The population PK approach based on sparse PK data was used to determine exposure (AUC) and oral clearance (CL/F) of IW-1973. Influence of patient demographics (eg, age, race) on exposure was evaluated. In addition, exposure-effect (such as hemodynamic, exploratory biomarkers, efficacy, and safety parameters) relationships were explored. Effects of concomitant medications on IW-1973 PK was also evaluated.
Praliciguat concentrations were measured using a validated liquid chromatography tandem mass spectrometry method, as previously described (Hanrahan J P, et al. “A Randomized, Placebo-Controlled, Multiple-Ascending-Dose Study to Assess the Safety, Tolerability, Pharmacokinetics, and Pharmacodynamics of the Soluble Guanylate Cyclase Stimulator Praliciguat in Healthy Subjects” Clin Pharmacol Drug Dev. 2019, 8(5):564-575). Population PK analysis was performed using NONMEM 7.4 (Icon Development Solutions, Ellicott City, MD) to update an existing model established with data from three Phase 1 studies in healthy subjects and two phase 2a studies in patients with stable type 2 diabetes mellitus (T2D) and hypertension. The influence of patient demographics, renal function and concomitant medications on exposure were evaluated, and estimates of exposure (AUC) and oral clearance (CL/F) were determined.

With `OC(CNc1nc(-c2cc(-c3ccon3)n(Cc3ccccc3F)n2)ncc1F)(C(F)(F)F)C(F)(F)F` [Compound I, praliciguat] the “Serum LDL Cholesterol: Between PRL and PBO Group LS Mean Change from Baseline at week 12” value ([1]; PRL 20 mg) was -8.9 mg/dL, the “Serum LDL Cholesterol: Within Group LS Mean Change from Baseline at Week 12” value ([1]; PRL 20 mg) was -6.0 mg/dL and the “Serum LDL Cholesterol: Between PRL and PBO Group LS Mean Change from Baseline at week 12” value ([1]; PRL 40 mg) was -6.2 mg/dL. The “Serum LDL Cholesterol: Within Group LS Mean Change from Baseline at Week 12” value ([1]; PRL 40 mg) was -3.3 mg/dL, the “Serum LDL Cholesterol: Between PRL and PBO Group LS Mean Change from Baseline at week 12” value ([1]; PRL Combined) was -7.5 mg/dL and the “Serum LDL Cholesterol: Within Group LS Mean Change from Baseline at Week 12” value ([1]; PRL Combined) was -4.6 mg/dL. For the same compound, the “LDL Cholesterol: Placebo Adjusted LS Mean Change from Baseline at Week 12” value ([1]; PRL 20 mg) was -13.4 mg/dL, the “LDL Cholesterol: Within Group LS Mean Change from Baseline at Week 12” value ([1]; PRL 20 mg) was -8.8 mg/dL and the “LDL Cholesterol: Placebo Adjusted LS Mean Change from Baseline at Week 12” value ([1]; PRL 40 mg) was -9.5 mg/dL. For the same compound, the “LDL Cholesterol: Within Group LS Mean Change from Baseline at Week 12” value ([1]; PRL 40 mg) was -4.9 mg/dL, the “LDL Cholesterol: Placebo Adjusted LS Mean Change from Baseline at Week 12” value ([1]; PRL Combined) was -11.4 mg/dL and the “LDL Cholesterol: Within Group LS Mean Change from Baseline at Week 12” value ([1]; PRL Combined) was -6.9 mg/dL. For the same compound, the “plasma exposure versus dose” value ([2]; 20 mg and 40 mg total daily oral dose) was “dose-proportional exposure”, the “time to steady state of plasma concentrations” value ([2]; daily oral dosing) was ≤ 4 weeks and the “route of elimination (renal excretion)” value ([2]; metabolized in the liver) was “negligible renal excretion”.
